Assay results: patent publication US9409866B2, “Pyridine-2-amides useful as CB2 agonists” (Hoffmann-La Roche Inc., priority 2012, dated 2016)
Where two headings read alike, the source gives them in different places.

Experiments:
human CB1 receptors = human CB1 receptors (Homo sapiens (Human), UniProt P21554); assay: functional cAMP assay, CHO cells expressing human CB1; type: cell-based; conditions: functional cAMP assay, CHO cells expressing human CB1
How it was run: (§1)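 Compound exposure lasted 30 min at 30 °C in IBMX (1 mM)-containing Krebs Ringer bicarbonate buffer, applied to human CB1- or CB2-expressing CHO cells. Lysates were read by time-resolved FRET cAMP detection, converted via cAMP standard curve (10 μM–0.13 nM), and EC50 values calculated.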

human CB2 receptors = human CB2 receptors (Homo sapiens (Human), UniProt P34972); assay: functional cAMP assay, CHO cells expressing human CB2; type: cell-based
Chain of human CB2 receptors (P34972 whole entry): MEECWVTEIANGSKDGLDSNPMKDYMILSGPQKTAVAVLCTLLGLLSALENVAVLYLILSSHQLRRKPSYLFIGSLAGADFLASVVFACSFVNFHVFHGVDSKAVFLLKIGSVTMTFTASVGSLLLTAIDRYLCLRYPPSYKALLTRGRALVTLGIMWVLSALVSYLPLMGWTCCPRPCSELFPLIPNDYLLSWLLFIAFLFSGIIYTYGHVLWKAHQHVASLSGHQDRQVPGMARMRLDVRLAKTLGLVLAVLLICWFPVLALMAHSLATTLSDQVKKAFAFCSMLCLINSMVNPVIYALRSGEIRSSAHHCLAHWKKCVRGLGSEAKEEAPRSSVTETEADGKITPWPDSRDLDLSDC
How it was run: as §1

Chain of human CB1 receptors (P21554 whole entry): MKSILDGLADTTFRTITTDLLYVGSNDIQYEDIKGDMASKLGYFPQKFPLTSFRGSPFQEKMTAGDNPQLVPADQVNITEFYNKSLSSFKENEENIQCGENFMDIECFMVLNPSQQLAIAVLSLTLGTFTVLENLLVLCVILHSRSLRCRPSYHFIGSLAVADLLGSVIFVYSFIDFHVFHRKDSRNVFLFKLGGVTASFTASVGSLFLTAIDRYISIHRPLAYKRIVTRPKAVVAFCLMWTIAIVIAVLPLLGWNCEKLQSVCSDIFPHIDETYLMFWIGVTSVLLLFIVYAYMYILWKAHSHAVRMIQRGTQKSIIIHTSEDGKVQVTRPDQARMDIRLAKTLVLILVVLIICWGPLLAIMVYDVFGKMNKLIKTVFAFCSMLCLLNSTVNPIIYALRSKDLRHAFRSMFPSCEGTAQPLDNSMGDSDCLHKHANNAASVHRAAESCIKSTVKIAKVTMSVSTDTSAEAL

Row | SMILES | EC50 (human CB1 receptors; read-out: Human CB1 EC50) [µM] | EC50 (human CB2 receptors; read-out: Human CB2 EC50) [µM] | EC50 (human CB1 receptors; Human CB1 EC50 (uM)) [µM] | EC50 (human CB2 receptors; Human CB2 EC50 (uM)) [µM]
1 | Cc1nc(C(NC(=O)c2cc(O[C@@H](C)C(F)(F)F)c(C3CC3)cn2)C(C)(C)C)no1 (stereo partly drawn) [Example 214, 5-cyclopropyl-N-[2,2-dimethyl-1-(5-methyl-1,2,4-oxadiazol-3-yl)propyl]-4-[(2S)-1,1,1-trifluoropropan-2-yl]oxypyridine-2-carboxamide] | > 10 | 0.008 | – | –
2 | CC1(COc2cc(C(=O)NC(C)(C)c3nnc(-c4ccccc4)o3)ncc2C2CC2)COC1 [Example 215, 5-cyclopropyl-4-[(3-methyloxetan-3-yl)methoxy]-N-[2-(5-phenyl-1,3,4-oxadiazol-2-yl)propan-2-yl]pyridine-2-carboxamide] | – | – | > 10 | 0.0309
3 | C[C@H](Oc1cc(C(=O)NC(c2nnn(C)n2)C(C)(C)C)ncc1C1CC1)C(F)(F)F (stereo partly drawn) [Example 216, 5-cyclopropyl-N-[2,2-dimethyl-1-(2-methyltetrazol-5-yl)propyl]-4-[(2S)-1,1,1-trifluoropropan-2-yl]oxypyridine-2-carboxamide] | > 10 | 0.0047 | – | –
4 | C[C@H](Oc1cc(C(=O)NC(c2noc(N)n2)C(C)(C)C)ncc1C1CC1)C(F)(F)F (stereo partly drawn) [Example 218, N-[1-(5-amino-1,2,4-oxadiazol-3-yl)-2,2-dimethylpropyl]-5-cyclopropyl-4-[(2S)-1,1,1-trifluoropropan-2-yl]oxypyridine-2-carboxamide] | > 10 | 0.0068 | – | –
5 | C[C@H](Oc1cc(C(=O)NC(c2noc(N)n2)C(C)(C)C)ncc1C1CC1)C(F)(F)F (stereo partly drawn) [Example 219, N-[1-(5-amino-1,2,4-oxadiazol-3-yl)-2,2-dimethylpropyl]-5-cyclopropyl-4-[(2S)-1,1,1-trifluoropropan-2-yl]oxypyridine-2-carboxamide] | > 10 | 0.001 | – | –
6 | Cc1nc(C(NC(=O)c2cc(O[C@@H](C)C(F)(F)F)c(C3CC3)cn2)C(C)(C)C)no1 (stereo partly drawn) [Example 220, 5-cyclopropyl-N-[2,2-dimethyl-1-(5-methyl-1,2,4-oxadiazol-3-yl)propyl]-4-[(2S)-1,1,1-trifluoropropan-2-yl]oxypyridine-2-carboxamide] | > 10 | 0.0027 | – | –
7 | Cc1nc(C(NC(=O)c2cc(O[C@@H](C)C(F)(F)F)c(C3CC3)cn2)C(C)(C)C)no1 (stereo partly drawn) [Example 221, 5-cyclopropyl-N-[2,2-dimethyl-1-(5-methyl-1,2,4-oxadiazol-3-yl)propyl]-4-[(2S)-1,1,1-trifluoropropan-2-yl]oxypyridine-2-carboxamide] | > 10 | 0.0084 | – | –
8 | NC(=O)CC1(NC(=O)c2cc(OCC3CC3)c(N3CC(F)(F)C3)cn2)COC1 [Example 222, N-[3-(2-amino-2-oxoethyl)oxetan-3-yl]-4-(cyclopropylmethoxy)-5-(3,3-difluoroazetidin-1-yl)pyridine-2-carboxamide] | > 10 | 0.0467 | – | –
9 | NC(=O)CC1(NC(=O)c2cc(OCC(F)(F)F)c(N3CC(F)(F)C3)cn2)COC1 [Example 223, N-[3-(2-amino-2-oxoethyl)oxetan-3-yl]-5-(3,3-difluoroazetidin-1-yl)-4-(2,2,2-trifluoroethoxy)pyridine-2-carboxamide] | > 10 | 0.166 | – | –
10 | CNC(=O)CC(C)(NC(=O)c1cc(OCC(F)(F)F)c(C2CC2)cn1)C1CC1 (centres unmarked) [Example 229, 5-cyclopropyl-N-[2-cyclopropyl-4-(methylamino)-4-oxobutan-2-yl]-4-(2,2,2-trifluoroethoxy)pyridine-2-carboxamide] | > 10 | 0.0114 | – | –
11 | CC(CC(N)=O)(NC(=O)c1cc(OCC(F)(F)F)c(C2CC2)cn1)C1CC1 (centres unmarked) [Example 230, N-(4-amino-2-cyclopropyl-4-oxobutan-2-yl)-5-cyclopropyl-4-(2,2,2-trifluoroethoxy)pyridine-2-carboxamide] | > 10 | 0.0009 | – | –
12 | CNC(=O)CC1(NC(=O)c2cc(OCC(F)(F)F)c(C3CC3)cn2)COC1 [Example 231, 5-cyclopropyl-N-[3-[2-(methylamino)-2-oxoethyl]oxetan-3-yl]-4-(2,2,2-trifluoroethoxy)pyridine-2-carboxamide] | > 10 | 0.547 | – | –
13 | CNC(=O)CC1(NC(=O)c2cc(O[C@@H](C)C(F)(F)F)c(C3CC3)cn2)COC1 [Example 232, 5-cyclopropyl-N-[3-[2-(methylamino)-2-oxoethyl]oxetan-3-yl]-4-[(2S)-1,1,1-trifluoropropan-2-yl]oxypyridine-2-carboxamide] | > 10 | 0.116 | – | –
14 | CNC(=O)CC1(NC(=O)c2cc(OCC(F)(F)F)c(N3CC(F)(F)C3)cn2)COC1 [Example 233, 5-(3,3-difluoroazetidin-1-yl)-N-[3-[2-(methylamino)-2-oxoethyl]oxetan-3-yl]-4-(2,2,2-trifluoroethoxy)pyridine-2-carboxamide] | > 10 | 0.915 | – | –
15 | CCC(CC)(NC(=O)c1cc(OCC2(C)COC2)c(C2CC2)cn1)C(=O)NCCCF [Example 234, 5-cyclopropyl-N-[3-(3-fluoropropylcarbamoyl)pentan-3-yl]-4-[(3-methyloxetan-3-yl)methoxy]pyridine-2-carboxamide] | > 10 | 0.455 | – | –
16 | CCC(CC)(NC(=O)c1cc(OCC2(C)COC2)c(C2CC2)cn1)C(=O)NCC(F)CCl (centres unmarked) [Example 235, N-[3-[[3-chloro-2-fluoropropyl]carbamoyl]pentan-3-yl]-5-cyclopropyl-4-[(3-methyloxetan-3-yl)methoxy]pyridine-2-carboxamide] | > 10 | 0.293 | – | –
17 | CNC(=O)C(NC(=O)c1cc(OCC(F)(F)F)c(C2CC2)cn1)C(C)(C)O (centres unmarked) [Example 236, 5-cyclopropyl-N-[3-hydroxy-3-methyl-1-(methylamino)-1-oxobutan-2-yl]-4-(2,2,2-trifluoroethoxy)pyridine-2-carboxamide] | > 10 | 0.0512 | – | –
18 | CNC(=O)C(NC(=O)c1cc(OCC(F)(F)F)c(C2CC2)cn1)C(C)(C)F (centres unmarked) [Example 237, 5-cyclopropyl-N-[3-fluoro-3-methyl-1-(methylamino)-1-oxobutan-2-yl]-4-(2,2,2-trifluoroethoxy)pyridine-2-carboxamide] | > 10 | 0.017 | – | –
19 | CNC(=O)C(NC(=O)c1cc(O[C@@H](C)C(F)(F)F)c(C2CC2)cn1)C(C)(C)O (stereo partly drawn) [Example 238, 5-cyclopropyl-N-[3-hydroxy-3-methyl-1-(methylamino)-1-oxobutan-2-yl]-4-[(2S)-1,1,1-trifluoropropan-2-yl]oxypyridine-2-carboxamide] | > 10 | 0.0274 | – | –
20 | C[C@H](Oc1cc(C(=O)NC(C(N)=O)C(C)(C)C)ncc1C1CC1)C(F)(F)F (stereo partly drawn) [Example 239, N-(1-amino-3,3-dimethyl-1-oxobutan-2-yl)-5-cyclopropyl-4-[(2S)-1,1,1-trifluoropropan-2-yl]oxypyridine-2-carboxamide] | > 10 | 0.0015 | – | –
21 | C[C@H](Oc1cc(C(=O)NC(C(N)=O)C(C)(C)C)ncc1C1CC1)C(F)(F)F (stereo partly drawn) [Example 240, N-(1-amino-3,3-dimethyl-1-oxobutan-2-yl)-5-cyclopropyl-4-[(2S)-1,1,1-trifluoropropan-2-yl]oxypyridine-2-carboxamide] | > 10 | 0.0552 | – | –
22 | Cc1nnc(C(NC(=O)c2cc(OCC(F)(F)F)c(C3CC3)cn2)C2(C)COC2)o1 (centres unmarked) [Example 245, 5-cyclopropyl-N-[(5-methyl-1,3,4-oxadiazol-2-yl)-(3-methyloxetan-3-yl)methyl]-4-(2,2,2-trifluoroethoxy)pyridine-2-carboxamide] | > 10 | 0.997 | – | –
23 | Cc1nnc(C(NC(=O)c2cc(O[C@@H](C)C(F)(F)F)c(C3CC3)cn2)C2(C)COC2)o1 (stereo partly drawn) [Example 246, 5-cyclopropyl-N-[(5-methyl-1,3,4-oxadiazol-2-yl)-(3-methyloxetan-3-yl)methyl]-4-[(2S)-1,1,1-trifluoropropan-2-yl]oxypyridine-2-carboxamide] | > 10 | 0.186 | – | –
24 | CNC(=O)CC(C)(NC(=O)c1cc(O[C@@H](C)C(F)(F)F)c(C2CC2)cn1)C1CC1 (stereo partly drawn) [Example 247, 5-cyclopropyl-N-[2-cyclopropyl-4-(methylamino)-4-oxobutan-2-yl]-4-[(2S)-1,1,1-trifluoropropan-2-yl]oxypyridine-2-carboxamide] | > 10 | 0.0193 | – | –
25 | C[C@H](Oc1cc(C(=O)NC(C)(CC(N)=O)C2CC2)ncc1C1CC1)C(F)(F)F (stereo partly drawn) [Example 248, N-(4-amino-2-cyclopropyl-4-oxobutan-2-yl)-5-cyclopropyl-4-[(2S)-1,1,1-trifluoropropan-2-yl]oxypyridine-2-carboxamide] | > 10 | 0.0009 | – | –
26 | CNC(=O)CC(C)(NC(=O)c1cc(O[C@@H](C)C(F)(F)F)c(C2CC2)cn1)C1CC1 (stereo partly drawn) [Example 249, 5-cyclopropyl-N-[2-cyclopropyl-4-(methylamino)-4-oxobutan-2-yl]-4-[(2S)-1,1,1-trifluoropropan-2-yl]oxypyridine-2-carboxamide] | > 10 | 0.001 | – | –
27 | CNC(=O)CC(C)(NC(=O)c1cc(O[C@@H](C)C(F)(F)F)c(C2CC2)cn1)C1CC1 (stereo partly drawn) [Example 250, 5-cyclopropyl-N-[2-cyclopropyl-4-(methylamino)-4-oxobutan-2-yl]-4-[(2S)-1,1,1-trifluoropropan-2-yl]oxypyridine-2-carboxamide] | > 10 | 0.0332 | – | –
28 | C[C@H](Oc1cc(C(=O)NC(C(N)=O)C2(C)COC2)ncc1C1CC1)C(F)(F)F (stereo partly drawn) [Example 251, N-[2-amino-1-(3-methyloxetan-3-yl)-2-oxoethyl]-5-cyclopropyl-4-[(2S)-1,1,1-trifluoropropan-2-yl]oxypyridine-2-carboxamide] | > 10 | 0.0089 | – | –
